Molecules are shown by their SMILES.

The test system of one assay is HT-29 cells. Description: HT-29 cell viability (necroptosis) assay. Format: cell-based. To be noted: Homo sapiens, TNF-α (40 ng/mL), Smac mimetic (100 nM), z-VAD (20 μM), 40 h, from survival rate curve. As to the method:
Human colon cancer HT-29 cells were used in a necroptosis assay. For this assay, HT-29 cells were added to 96-well plates. The compounds at different concentrations (0.3, 1.0, 3.0, 10.0, 20.0 μM) were then preprocessed for two hours. TNF-α (40 ng/mL), Smac mimetic (100 nM) and z-VAD (20 μM) were added, and the mixture was incubated for 40 h. Quantitative analysis of cell viability was conducted. DMSO pretreatment group was used as a negative control. Concentration for 50% of maximal effect was calculated according to the curve of the survival rate measured at different concentrations. FIG. 1 depicts the EC50 curves of compound A16.
In turn, `CCC1=Cc2cc3nccc(Nc4ccc5scnc5c4)c3cc2S1(=O)=O` [Compound A4] displayed an EC50 of 0.98 µM.

For `O=S1(=O)C=C(OCCO)c2cc3nccc(Nc4ccc5scnc5c4)c3cc21` [Compound A16, 8-(benzo[d]thiazol-5-ylamino)-3-(2-hydroxyethoxy)thieno[2,3-g]quinoline 1,1-dioxide], the EC50 worked out at 1.29 µM.

The compound `COc1ccc(C2=CS(=O)(=O)c3cc4c(Nc5ccc6scnc6c5)ccnc4cc32)cc1` [Compound A23] came in with an EC50 of 1.04 µM.

The compound `Cc1ccc(O)cc1Nc1ccnc2cc3c(cc12)S(=O)(=O)C(C)(C)C3=O` [Compound B13] showed an EC50 of 0.52 µM.

Take `O=S1(=O)C=C(OC2CCNC2)c2cc3nccc(Nc4ccc5scnc5c4)c3cc21` (stereo not drawn) [Compound A113]: the EC50 amounted to 1.99 µM.

The compound `Cc1ccc(O)cc1Nc1ccnc2cc3c(cc12)S(=O)(=O)C=C3C1CC1` [Compound A95] displayed an EC50 of 0.3 µM.

`CC1(C)C(=O)c2cc3nccc(Nc4cc(O)c(F)cc4F)c3cc2S1(=O)=O` [Compound B15] returned an EC50 of 0.72 µM.

For `O=S1(=O)CC2(CCCO2)c2cc3nccc(Nc4ccc5scnc5c4)c3cc21` (stereo not drawn) [Compound B27], the EC50 turned out to be 2.2 µM.

On to `O=S1(=O)C=C(C2CC2)c2cc3nccc(Nc4cc(O)ccc4F)c3cc21` [Compound A89], for which a half-maximal effect (EC50) was put at 0.22 µM.

On to `CC1=Cc2cc3nccc(Nc4cc(O)ccc4F)c3cc2S1(=O)=O` [Compound A52], for which a half-maximal response (EC50) required 0.26 µM.

`CCC1=CS(=O)(=O)c2cc3c(Nc4ccc5scnc5c4)ccnc3cc21` [Compound A10]: a half-maximal effect (EC50) was put at 1.38 µM.

For the compound `O=S1(=O)C=C(C2CC2)c2cc3nccc(Nc4cc(O)c(Cl)cc4F)c3cc21` [Compound A101], the response was half-maximal at 0.4 µM (EC50).

Turning to `COC1=C(C)S(=O)(=O)c2cc3c(Nc4ccc5scnc5c4)ccnc3cc21` [Compound A19], the response was half-maximal at 0.2 µM (EC50).

The same assay, now with this note: Homo sapiens, compound at 20 μM, TNF-α (40 ng/mL), Smac mimetic (100 nM), z-VAD (20 μM), 40 h, read-out: HT-29(20 μM) Survival.
Turning to `CC1=Cc2cc3nccc(Nc4cncc(N)c4)c3cc2S1(=O)=O` [Compound A64], the viability at 20 µM amounted to 20.2%.

Take `O=C1NCCc2ccc(Nc3ccnc4cc5c(cc34)S(=O)(=O)C=C5C3CC3)cc21` [Compound A93]: the viability at 20 µM was determined as 11.1%.

With `CNCCOC1=CS(=O)(=O)c2cc3c(Nc4ccc5scnc5c4)ccnc3cc21` [Compound A111], the viability at 20 µM amounted to 42%.

Turning to `O=S1(=O)C=Cc2cc3nccc(Nc4ccc5scnc5c4)c3c(O)c21` [Compound A109], the viability at 20 µM came out at 25%.

In the case of `CC1=CS(=O)(=O)c2cc3c(Nc4cc(O)cc(C(F)(F)F)c4)ccnc3cc21` [Compound A82], the viability at 20 µM was determined as 11%.

Consider `CC(=O)Nc1ccc(C)c(Nc2ccnc3cc4c(cc23)S(=O)(=O)C(C)=C4C)c1` [Compound A86], for which the viability at 20 µM was 20.5%.

As for `CC1=Cc2cc3nccc(Nc4ccc5c(c4)C(=O)NCC5)c3cc2S1(=O)=O` [Compound A43], the viability at 20 µM was found to be 48.8%.

As for `Cc1n[nH]c(Nc2ccnc3cc4c(cc23)S(=O)(=O)C(C)(C)C4=O)c1C` [Compound B18], the viability at 20 µM was determined as 22.7%.

Regarding `CC1=Cc2cc3nccc(Nc4ccc(O)cc4C)c3cc2S1(=O)=O` [Compound A51], the viability at 20 µM amounted to 16.1%.

Consider `CC1(C)C(O)(C2CC2)c2cc3nccc(Nc4ccc5scnc5c4)c3cc2S1(=O)=O` (stereo not drawn) [Compound B11], for which the viability at 20 µM came to 26.2%.

For the compound `CC1=Cc2cc3nccc(Nc4cc(CN)ccc4C)c3cc2S1(=O)=O` [Compound A50, 8-((5-(aminomethyl)-2-methylphenyl)amino)-2-methylthieno[2,3-g]quinoline 1,1-dioxide], the viability at 20 µM was found to be 17.9%.

For `CC1=Cc2cc3nccc(Nc4ccc(O)c(C(F)(F)F)c4)c3cc2S1(=O)=O` [Compound A57], the viability at 20 µM stood at 15.3%.

For `CC1=Cc2cc3nccc(Nc4ccn5ncnc5c4)c3cc2S1(=O)=O` [Compound A69], the viability at 20 µM came to 10.5%.

In the case of `O=S1(=O)CC2(COC2)c2cc3nccc(Nc4ccc5scnc5c4)c3cc21` [Compound B28, 8′-(benzo[d]thiazol-5-ylamino)-2′H-spiro[oxetane-3,3′-thieno[2,3-g]quinoline] 1′, 1′-dioxide], the viability at 20 µM was determined as 15%.
